Measured values from US20100248223A1, “ASSESSING OUTCOMES FOR BREAST CANCER PATIENTS” (MAYO FOUNDATION FOR MEDICAL EDUCATION AND RESEARCH, priority 2006, published 2010).
Where two headings read alike, the source gives them in different places.

Legend:
CYP2D6 enzyme system = CYP2D6 enzyme system (Homo sapiens, UniProt P10635); details: classification from cited literature; cited from earlier work
[1] = tested on: resected ER positive breast cancer; details: for 9 year RFS rate / 5-year DFS: node negative
Excerpt: Patients. […] Postmenopausal women with node-negative disease were required to have stage T1c or T2N0M0 cancer and could be any age, whereas women with node-positive disease were required to be at least 65 years of age with a tumor stage T1 (any N) or T2N1M0. […] Patients were surgically treated with either a modified radical mastectomy or breast conservative therapy including lumpectomy, axillary nodal dissection, and radiation therapy. The axillary dissection must have involved at least levels I and II and the examination of at least 6 axillary nodes. […] Postlumpectomy radiation therapy consisted of a total cumulative breast dose of 5040 cGy in 28 fractions, and those with axillary nodal involvement also received radiation to the axilla and supraclavicular regions. Patients were classified as ER positive if resected breast tissue contained ≧10 fmol of ER polypeptide/mg cytosol protein or was positive for ER polypeptide by an immunohistochemical assay. All patients were randomized within 6 weeks of definitive surgery.
Patients were stratified based on axillary lymph node status (0, 1-3, 4-9 vs. 10 or more), age (<65 years vs. >65), primary tumor size (<3 cm vs. >3 cm), ER status (10-49 fmol vs. 50 fmol or greater vs. positive by immunohistochemical assay), and extent of surgery (mastectomy vs. breast conservation therapy).
Study Design and End Points. One objective of this study was to examine the relationship between the HOXB13:IL-17BR expression ratio and clinical outcomes of relapse-free survival, disease-free survival, and overall survival. Relapse-free survival (RFS) was defined as the time from randomization to documentation of the first of the following events: any recurrence (local, regional or distant) of breast cancer, a contralateral breast cancer or death. When estimating the distribution of RFS, patients who developed a non-breast second primary cancer (other than squamous or basal cell carcinoma of the skin, carcinoma in situ of the cervix, or lobular carcinoma in situ of the breast) prior to the diagnosis of a breast event were censored on the day their second primary was diagnosed. Patients who were alive without a breast recurrence, contralateral breast cancer or a second non-breast primary cancer were censored at the date of their last disease evaluation. Disease-free survival (DFS) was defined as the time from randomization to documentation of the first of the following events: any recurrence (local, regional or distant) of breast cancer, a contralateral breast cancer, a second primary cancer, or death due to any cause. Patients who were alive without any of these events were censored at the date of their last disease evaluation. Overall survival (OS) was estimated as the time from registration to death due to any cause.
Relapse-free (RF) time was defined as the time from randomization to documentation of a breast event where a breast event is any recurrence (local, regional, or distant) of breast cancer or the documentation of contralateral breast cancer (including ductal carcinoma in situ). When estimating the distribution of RF time, patients who developed a non-breast second primary cancer (other than squamous or basal cell carcinoma of the skin, carcinoma in situ of the cervix, or lobular carcinoma in situ of the breast) prior to the diagnosis of a breast event were censored on the day their second primary was diagnosed. Patients (alive or dead) without a breast recurrence, contralateral breast cancer or a second non-breast primary cancer were censored at the date of their last disease evaluation.
Disease-free survival (DFS) was defined as the time from randomization to documentation of the first of the following events: any recurrence (local, regional or distant) of breast cancer, the documentation of contralateral breast cancer, or death due to any cause.

[2] = patients with gene expression data (n=206), oral tamoxifen 20 mg daily for 5 years

Sequence of CYP2D6 enzyme system (P10635 whole entry): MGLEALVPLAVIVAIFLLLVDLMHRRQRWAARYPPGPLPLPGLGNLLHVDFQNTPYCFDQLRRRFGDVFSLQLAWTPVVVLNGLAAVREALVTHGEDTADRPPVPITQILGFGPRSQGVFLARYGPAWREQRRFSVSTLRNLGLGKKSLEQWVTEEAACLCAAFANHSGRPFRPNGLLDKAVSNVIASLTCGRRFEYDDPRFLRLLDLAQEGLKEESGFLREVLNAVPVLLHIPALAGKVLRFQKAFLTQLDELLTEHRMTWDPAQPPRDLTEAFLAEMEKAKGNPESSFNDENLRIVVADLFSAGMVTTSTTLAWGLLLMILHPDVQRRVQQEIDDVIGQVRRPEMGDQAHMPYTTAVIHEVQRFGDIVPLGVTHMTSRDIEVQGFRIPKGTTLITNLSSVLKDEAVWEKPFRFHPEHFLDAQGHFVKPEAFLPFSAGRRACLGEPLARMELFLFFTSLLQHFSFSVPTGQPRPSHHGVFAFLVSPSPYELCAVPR

SMILES: O=C(CCCN1CCC(O)(c2ccc(Cl)cc2)CC1)c1ccc(F)cc1 [haloperidol]
- strength of inhibition of the CYP2D6 enzyme system (CYP2D6 enzyme system): moderate

SMILES: CN[C@H]1CC[C@@H](c2ccc(Cl)c(Cl)c2)c2ccccc21 [sertraline]
- strength of inhibition of the CYP2D6 enzyme system (CYP2D6 enzyme system): moderate

SMILES: CN/C(=N/CCSCc1nc[nH]c1C)NC#N [cimetidine]
- strength of inhibition of the CYP2D6 enzyme system (CYP2D6 enzyme system): moderate

SMILES: CC/C(=C(\c1ccccc1)c1ccc(OCCN(C)C)cc1)c1ccccc1 [tamoxifen]
- patients reporting mild (grade 1) hot flashes (223 patients): 40%
- patients reporting moderate (grade 2) hot flashes (223 patients): 15%
- patients reporting severe (grade 3) hot flashes (223 patients): 5%
- % of patients who developed moderate or severe hot flashes (CYP2D6 (*4) *4/Wt genotype): 9/40 (23%)
- % of patients who developed moderate or severe hot flashes (CYP2D6 (*4) Wt/Wt genotype): 27/137 (20%)
- % of patients who developed moderate or severe hot flashes (CYP2D6 *4/WT or WT/WT genotypes (n=177)): 20%
- % of patients who developed moderate or severe hot flashes (CYP3A5 (*3) A/A genotype): 1/6 (17%)
- % of patients who developed moderate or severe hot flashes (CYP3A5 (*3) G/A genotype): 6/24 (25%)
- % of patients who developed moderate or severe hot flashes (CYP3A5 (*3) G/G genotype): 37/175 (21%)
- 9 year RFS rate ([1]; Goetz index high risk): 46%
- 9 year RFS rate ([1]; Goetz index intermediate risk): 65%
- 9 year RFS rate ([1]; Goetz index low risk): 87%
- 5-year DFS ([1]; risk profile 1: 2-gene ratio <−1.339, CYP2D6 extensive): 94%
- 5-year DFS ([1]; risk profile 3: 2-gene ratio >−1.339, CYP2D6 extensive): 83%
- 5-year DFS ([1]; risk profile 4: 2-gene ratio >−1.339, CYP2D6 decreased): 57%
- Kaplan-Meier estimate for the 5 year DFS [1, 2]: 74.3%
- Kaplan-Meier estimate for the 5 year OS [1, 2]: 78.2%
- Kaplan-Meier estimate for the 5 year RFS [1, 2]: 75.6%

SMILES: Fc1ccc([C@@H]2CCNC[C@H]2COc2ccc3c(c2)OCO3)cc1 [paroxetine]
- strength of inhibition of the CYP2D6 enzyme system (CYP2D6 enzyme system): potent

SMILES: CN(C)CCC=C1c2ccccc2COc2ccccc21 [doxepin]
- strength of inhibition of the CYP2D6 enzyme system (CYP2D6 enzyme system): moderate
